Columns and labels:
MLKL [1] = target: T1, MLKL (Homo sapiens, UniProt Q8NB16); assay: Measurement of binding affinity with MLKL receptor (competitive binding assay, Kd); set-up: made in house; host or cells: HEK 293 cell line (T7 phage in E. coli BL21-derived host is also described)
T1 sequence (Q8NB16 1-471): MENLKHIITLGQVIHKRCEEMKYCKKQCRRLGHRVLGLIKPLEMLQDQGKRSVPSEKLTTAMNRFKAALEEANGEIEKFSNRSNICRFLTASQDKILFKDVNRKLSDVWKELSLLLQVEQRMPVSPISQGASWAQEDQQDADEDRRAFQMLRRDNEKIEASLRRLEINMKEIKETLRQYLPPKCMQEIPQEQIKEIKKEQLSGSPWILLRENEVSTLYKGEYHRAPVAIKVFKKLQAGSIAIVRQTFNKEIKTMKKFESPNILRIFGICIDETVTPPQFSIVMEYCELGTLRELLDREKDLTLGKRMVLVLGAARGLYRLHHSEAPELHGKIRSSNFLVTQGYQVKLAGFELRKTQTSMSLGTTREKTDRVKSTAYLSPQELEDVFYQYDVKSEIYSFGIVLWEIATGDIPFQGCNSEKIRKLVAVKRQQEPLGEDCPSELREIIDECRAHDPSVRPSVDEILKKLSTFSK
Summary of the method: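 qPCR of MLKL eluted from liganded beads served as the read-out, from which Kd was derived. The protein was made in HEK 293 cells with a DNA tag, and test compounds competed with the bead-bound ligand at 0.9% final DMSO.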

FADD−/− Jurkat cells = assay: Necroptosis inhibition assay, TNF-α-induced necroptosis (CellTiter-Glo 2.0); format: cell-based, human; conditions: TNF-α 15 ng/mL; for Necroptosis inhibition assay (Rescue %) 1 μM: compound 1 μM; for Necroptosis inhibition assay (Rescue %) 10 μM: compound 10 μM
Summary of the method: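 Cmpd 0.1/1/10 μM final, 30 min RT preincubation; TNF-α 15 ng/mL final; 20–24 h, 37° C, 5% CO2. Readout: ATP luminescence (reagent 1:3 in PBS), 0.5 s/well. Cytotoxicity and % necroptosis inhibition calculated from signal.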

MLKL [2] = target: T1, MLKL; assay: MLKL degradation assay in HepG2 cell line (western blot); format: cell-based; set-up: endogenous in cells; host or cells: HepG2 or HaCaT; conditions: cell line not given; for Degradation assay (Degradation %) 1 μM: compound 1 μM; for Degradation assay (Degradation %) 10 μM: compound 10 μM
Summary of the method: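 HepG2, cpd final 1 or 10 μM, 20-24 h, 37 °C/5% CO2; RIPA lysis, BCA-normalized, 10-15 μg/lane SDS-PAGE, western blot, ECL read-out.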

| SMILES | Kd (MLKL [1]) | Degradation assay (Degradation %) 1 μM (MLKL [2]) | Degradation assay (Degradation %) 10 μM (MLKL [2]) | Necroptosis inhibition assay (Rescue %) 1 μM (FADD−/− Jurkat cells; FADD−/− Jurkat cells) | Necroptosis inhibition assay (Rescue %) 10 μM (FADD−/− Jurkat cells; FADD−/− Jurkat cells) | Necroptosis inhibition assay (Rescue %) 1 μM (FADD−/− Jurkat cells) | Necroptosis inhibition assay (Rescue %) 10 μM (FADD−/− Jurkat cells) |
| --- | --- | --- | --- | --- | --- | --- | --- |
| Nc1ncc(-c2cnn(C3CCN(CCC4CCN(C(=O)c5cccc(C(=O)NC6CCC(=O)NC6=O)c5)CC4)CC3)c2)nc1C(=O)O[C@@H](C(=O)Nc1ccc(F)cc1)c1ccccc1 (stereo partly drawn) [TDH-543, (R)-2-((4-fluorophenyl)amino)-2-oxo-1-phenylethyl 3-amino-6-(1-(1-(2-(1-(3-((2,6-dioxopiperidin-3-yl)carbamoyl)benzoyl)piperidin-4-yl)ethyl)piperidin-4-yl)-1H-pyrazol-4-yl)pyrazine-2-carboxylate] | 0.23 nM | 76.24% | 80.46% | 37.86% | 26.19% | – | – |
| Nc1ncc(-c2cnn(C3CCN(CCOC4CCN(C(=O)COc5ccc6c(c5)C(=O)N(C5CCC(=O)NC5=O)C6=O)CC4)CC3)c2)nc1C(=O)OC(C(=O)Nc1ccc(F)cc1)c1ccccc1 (stereo not shown) [TDH-252, 2-((4-fluorophenyl)amino)-2-oxo-1-phenylethyl 3-amino-6-(1-(1-(2-((1-(2-((2-(2,6-dioxopiperidin-3-yl)-1,3-dioxoisoindolin-5-yl)oxy)acetyl)piperidin-4-yl)oxy)ethyl)piperidin-4-yl)-1H-pyrazol-4-yl)pyrazine-2-carboxylate] | 3.9 nM | 76.56% | 84.2% | – | – | 124.11% | 73.38% |
| Nc1ncc(-c2cnn(C3CCN(CCC4CCN(C(=O)C5CCN(c6ccc7c(c6)C(=O)N(C6CCC(=O)NC6=O)C7=O)CC5)CC4)CC3)c2)nc1C(=O)O[C@@H](C(=O)Nc1ccc(F)cc1)c1ccccc1 (stereo partly drawn) [TDH-197, (R)-2-((4-fluorophenyl)amino)-2-oxo-1-phenylethyl 3-amino-6-(1-(1-(2-(1-(1-(2-(2,6-dioxopiperidin-3-yl)-1,3-dioxoisoindolin-5-yl)piperidine-4-carbonyl)piperidin-4-yl)ethyl)piperidin-4-yl)-1H-pyrazol-4-yl)pyrazine-2-carboxylate] | 0.74 nM | 58.62% | 23.6% | – | – | 56.07% | 32.02% |
| Nc1ncc(-c2cnn(C3CCN(CC4CCN(CC5CCN(C(=O)c6ccc(C(=O)NC7CCC(=O)NC7=O)cc6)CC5)CC4)CC3)c2)nc1C(=O)O[C@@H](C(=O)Nc1ccc(F)cc1)c1ccccc1 (stereo partly drawn) [TDH-539, (R)-2-((4-fluorophenyl)amino)-2-oxo-1-phenylethyl 3-amino-6-(1-(1-((1-((1-(4-((2,6-dioxopiperidin-3-yl)carbamoyl)benzoyl)piperidin-4-yl)methyl)piperidin-4-yl)methyl)piperidin-4-yl)-1H-pyrazol-4-yl)pyrazine-2-carboxylate] | 0.68 nM | 70.67% | 89.04% | 46.99% | 30.33% | – | – |
| Nc1ncc(-c2cnn([C@H]3CCN(CC4CCN(C(=O)CNc5ccc6c(c5)C(=O)N(C5CCC(=O)NC5=O)C6=O)CC4)C3)c2)nc1C(=O)OC(C(=O)Nc1ccc(F)cc1)c1ccccc1 (stereo partly drawn) [TDH-282, 2-((4-fluorophenyl)amino)-2-oxo-1-phenylethyl 3-amino-6-(1-((3S)-1-((1-((2-(2,6-dioxopiperidin-3-yl)-1,3-dioxoisoindolin-5-yl)glycyl)piperidin-4-yl)methyl)pyrrolidin-3-yl)-1H-pyrazol-4-yl)pyrazine-2-carboxylate] | 5.6 nM | 60.51% | 58.02% | – | – | 77.92% | 67.84% |

Continued by falling Kd (MLKL [1]), values first:

| Kd (MLKL [1]) | Degradation assay (Degradation %) 1 μM (MLKL [2]) | Degradation assay (Degradation %) 10 μM (MLKL [2]) | SMILES | Necroptosis inhibition assay (Rescue %) 1 μM (FADD−/− Jurkat cells; FADD−/− Jurkat cells) | Necroptosis inhibition assay (Rescue %) 10 μM (FADD−/− Jurkat cells; FADD−/− Jurkat cells) | Necroptosis inhibition assay (Rescue %) 1 μM (FADD−/− Jurkat cells) | Necroptosis inhibition assay (Rescue %) 10 μM (FADD−/− Jurkat cells) |
| --- | --- | --- | --- | --- | --- | --- | --- |
| 66 nM | 11.62% | 31.11% | Nc1ncc(-c2cnn(C3CCN(CCOCCOCCNC(=O)CNc4cccc5c4C(=O)N(C4CCC(=O)NC4=O)C5=O)CC3)c2)nc1C(=O)N[C@@H](C(=O)Nc1ccc(F)cc1)c1ccccc1 (stereo partly drawn) [TDH-217, 3-amino-6-(1-(1-(2-(2-(2-(2-((2-(2,6-dioxopiperidin-3-yl)-1,3-dioxoisoindolin-4-yl)amino)acetamido)ethoxy)ethoxy)ethyl)piperidin-4-yl)-1H-pyrazol-4-yl)-N-((R)-2-((4-fluorophenyl)amino)-2-oxo-1-phenylethyl)pyrazine-2-carboxamide] | – | – | 24.76% | 48.87% |
| 4.1 nM | 91.95% | 89.12% | Nc1ncc(-c2cnn(C3CCN(C(=O)CCC4CCN(C(=O)CNc5ccc6c(c5)C(=O)N(C5CCC(=O)NC5=O)C6=O)CC4)CC3)c2)nc1C(=O)O[C@@H](C(=O)Nc1ccc(F)cc1)c1ccccc1 (stereo partly drawn) [TDH-422, (R)-2-((4-fluorophenyl)amino)-2-oxo-1-phenylethyl 3-amino-6-(1-(1-(3-(1-((2-(2,6-dioxopiperidin-3-yl)-1,3-dioxoisoindolin-5-yl)glycyl)piperidin-4-yl)propanoyl)piperidin-4-yl)-1H-pyrazol-4-yl)pyrazine-2-carboxylate] | 50.21% | 40.34% | – | – |
| 1.5 nM | 40.52% | 53.39% | Nc1ncc(-c2cnn(C3CCN(C(=O)C4CCN(C(=O)COc5cccc6c5C(=O)N(C5CCC(=O)NC5=O)C6=O)CC4)CC3)c2)nc1C(=O)OC(C(=O)Nc1ccc(F)cc1)c1ccccc1 (stereo not shown) [TDH-277, 2-((4-fluorophenyl)amino)-2-oxo-1-phenylethyl 3-amino-6-(1-(1-(1-(2-((2-(2,6-dioxopiperidin-3-yl)-1,3-dioxoisoindolin-4-yl)oxy)acetyl)piperidine-4-carbonyl)piperidin-4-yl)-1H-pyrazol-4-yl)pyrazine-2-carboxylate] | – | – | 43.59% | 13.88% |
| 1 nM | 86.09% | 88.6% | Nc1ncc(-c2cnn(C3CCN(CCCN4CCN(C(=O)CC5CCN(c6cccc7c6C(=O)N(C6CCC(=O)NC6=O)C7=O)CC5)CC4)CC3)c2)nc1C(=O)O[C@@H](C(=O)Nc1ccc(F)cc1)c1ccccc1 (stereo partly drawn) [TDH-368, (R)-2-((4-fluorophenyl)amino)-2-oxo-1-phenylethyl 3-amino-6-(1-(1-(3-(4-(2-(1-(2-(2,6-dioxopiperidin-3-yl)-1,3-dioxoisoindolin-4-yl)piperidin-4-yl)acetyl)piperazin-1-yl)propyl)piperidin-4-yl)-1H-pyrazol-4-yl)pyrazine-2-carboxylate] | – | – | 40.51% | 5.97% |
| 0.9 nM | 89.17% | 73.05% | Nc1ncc(-c2cnn(C3CCN(C(=O)CCC4CCN(C(=O)CCc5ccc6c(c5)C(=O)N(C5CCC(=O)NC5=O)C6=O)CC4)CC3)c2)nc1C(=O)O[C@@H](C(=O)Nc1ccc(F)cc1)c1ccccc1 (stereo partly drawn) [TDH-432, (R)-2-((4-fluorophenyl)amino)-2-oxo-1-phenylethyl 3-amino-6-(1-(1-(3-(1-(3-(2-(2,6-dioxopiperidin-3-yl)-1,3-dioxoisoindolin-5-yl)propanoyl)piperidin-4-yl)propanoyl)piperidin-4-yl)-1H-pyrazol-4-yl)pyrazine-2-carboxylate] | 12.47% | 0.07% | – | – |
| 0.9 nM | 55.53% | 84.44% | Nc1ncc(-c2cnn(C3CCN(CCC4CCN(CC5CCN(c6cc7c(cc6F)C(=O)N(C6CCC(=O)NC6=O)C7=O)CC5)CC4)CC3)c2)nc1C(=O)O[C@@H](C(=O)Nc1ccc(F)cc1)c1ccccc1 (stereo partly drawn) [TDH-514, (R)-2-((4-fluorophenyl)amino)-2-oxo-1-phenylethyl 3-amino-6-(1-(1-(2-(1-((1-(2-(2,6-dioxopiperidin-3-yl)-6-fluoro-1,3-dioxoisoindolin-5-yl)piperidin-4-yl)methyl)piperidin-4-yl)ethyl)piperidin-4-yl)-1H-pyrazol-4-yl)pyrazine-2-carboxylate] | 24.14% | −67.06% | – | – |

Reference: US20240252488A1 (KOREA RESEARCH INSTITUTE OF CHEMICAL TECHNOLOGY, priority 2020, published 2024)
